In patent US20150265554A1, “Treatment of MeCP-2 Associated Disorders” (UNIVERSITÉ D'AIX-MARSEILLE, priority 2010, published 2015):

Key:
Mecp2-deficient mice [1] = assay: Lifespan (survival) study, oral cysteamine in drinking water; assay type: in vivo, mouse; details: cysteamine in drinking water 225 mg/kg/day from P30, mean±SEM, n=17, p<0.05 vs vehicle (65±2.2 days), Kaplan-Meir log-rank test
Protocol: Experiments were performed on Sprague dawley rats and B6.129P2(C)- MeCP2 tm1-1 Bird mouse model for RTT (Guy, J., Hendrich, B., Holmes, M., Martin, J. E., Bird, A. (2001) A mouse Mecp2-null mutation causes neurological symptoms that mimic Rett syndrome. Nat. Genet. 27, 322-326). The mice were obtained from the Jackson Laboratory and maintained on a C57BL/6 background. The rats were obtained from Charles River Laboratories, France. The experimental procedures were carried out in keeping with the European guidelines for the care and use of laboratory animals (Council Directive […]). For the mouse experiments, hemizygous mutant males (MeCP2^-/y) were generated by crossing heterozygous knockout females to C57BL/6 males. […]
From P30, animals received a cysteamine treatment in their drinking water (225 mg/kg/day) (Sigma-Aldrich; St-Quentin, France). […] Open-field activity was measured in an arena made of clear perspex (38×30 cm). The test session lasted 15 min with data recorded using the Ethovision 2.3.19 tracking system (Noldus Information Technology). Velocity (cm/s) and total distance moved (cm) were recorded. […]

Mecp2-deficient mice [2] = assay: Open-field activity (total distance moved, velocity); assay type: in vivo, mouse
Protocol: Experiments were performed on Sprague dawley rats and B6.129P2(C)- MeCP2 tm1-1 Bird mouse model for RTT (Guy, J., Hendrich, B., Holmes, M., Martin, J. E., Bird, A. (2001) A mouse Mecp2-null mutation causes neurological symptoms that mimic Rett syndrome. Nat. Genet. 27, 322-326). The mice were obtained from the Jackson Laboratory and maintained on a C57BL/6 background. The rats were obtained from Charles River Laboratories, France. The experimental procedures were carried out in keeping with the European guidelines for the care and use of laboratory animals (Council Directive […]). For the mouse experiments, hemizygous mutant males (MeCP2^-/y) were generated by crossing heterozygous knockout females to C57BL/6 males. Genotyping was performed by routine PCR technique according to Jackson Laboratory protocols and as previously described (Viemari, J. C., Roux, J. C., Tryba, A. K., Saywell, V., Burnet, H., Peña, F., Zanella, S., Bévengut, M., Barthelemy-Requin, M., Herzing, L. B., Moncla, A., Mancini, J., Ramirez, J. M., Villard, L., Hilaire, G. (2005) Mecp2 deficiency disrupts norepinephrine and respiratory systems in mice. J. Neurosci. 25, 11521-11530).
From P30, animals received a cysteamine treatment in their drinking water (225 mg/kg/day) (Sigma-Aldrich; St-Quentin, France). Every 2 days, mice were weighted, cysteamine solution renewed and treatment consumption checked. […] Seventy-nine Mecp2 deficient mice were studied (lifespan study, n=17 cysteamine-treated and n=42 untreated; motor evaluation n=10 cysteamine-treated and n=10 untreated). The mice were assigned to each experimental group by an investigator who was blind to their genotype. Open-field activity was measured in an arena made of clear perspex (38×30 cm). The test session lasted 15 min with data recorded using the Ethovision 2.3.19 tracking system (Noldus Information Technology). Velocity (cm/s) and total distance moved (cm) were recorded. Velocity calculations on Ethovision were obtained using an input filter setting the minimal distance moved (0.6 cm) so that ambulations shorter than this value were never taken into account.

NCCS [cysteamine]
life span (Mecp2-deficient mice [1]): 74.8 ± 5.2 days | locomotion in open field arena (total distance moved and velocity) (Mecp2-deficient mice [2]; Mecp2-deficient mice, chronic oral cysteamine vs placebo group, especially in the later stages): significantly improved locomotion | mouse velocity in open field (Mecp2-deficient mice [2]; Mecp2-deficient mice, oral cysteamine vs vehicle, from P65, p<0.05, n=10 per group): significantly increased | total distance traveled in the open field arena during the 15-minute session (Mecp2-deficient mice [2]; Mecp2-deficient mice, oral cysteamine vs vehicle, from P75, n=10 per group): statistically increased | total distance, difference between cysteamine treated and placebo group (Mecp2-deficient mice [2]; P55, open field 15 min): +3% | velocity, difference between cysteamine treated and placebo group (Mecp2-deficient mice [2]; P55, open field 15 min): +18% | total distance, difference between cysteamine treated and placebo group (Mecp2-deficient mice [2]; P65, open field 15 min): +40% | velocity, difference between cysteamine treated and placebo group (Mecp2-deficient mice [2]; P65, open field 15 min): +33% | total distance, difference between cysteamine treated and placebo group (Mecp2-deficient mice [2]; P75, open field 15 min): +128% | velocity, difference between cysteamine treated and placebo group (Mecp2-deficient mice [2]; P75, open field 15 min): +65% | total distance, difference between cysteamine treated and placebo group (Mecp2-deficient mice [2]; P85, open field 15 min): +485% | velocity, difference between cysteamine treated and placebo group (Mecp2-deficient mice [2]; P85, open field 15 min): +74%
